Laboratory results from publication PMC8398472, “Anticancer Diiron Vinyliminium Complexes: A Structure–Activity Relationship Study” (Pharmaceutics, 2021).
“Also recorded” adds a separate entry of the source.

Tests used:
cytochrome c (Cyt c) = molecular target: T1, cytochrome c (Cyt c) (Equus caballus, UniProt P00004); test: ESI-MS interaction with cytochrome c; assay type: binding; conditions: 24 h at 37 °C, protein-to-metal ratio 1:2, pH 6.8
T1 construct: purchased
Method: • (a) Sample preparation. Cytochrome c (Cyt c) was commercially available and used as received; the TrxR dodecapeptide (TrxR-pept) was synthesized as reported in the literature. The stock solutions of the selected iron-based complexes were prepared in DMSO up to a final concentration of 10^−2 M. The stock solution of TrxR-pept was prepared in LC-MS grade water by dissolving the required amount of lyophilized peptide to reach a final concentration of 10^−3 M. The stock solution of Cyt c 10^−3 M was prepared by dissolving the required amount of protein in 2 mM ammonium acetate solution at pH 6.8. In the interaction tests with TrxR-pept, opportune aliquots of each complex and TrxR-pept stock solutions were mixed and diluted with LC-MS grade water to 10^−4 M final concentration and a TrxR-pept/complex ratio of 1:1. For each iron-based complex/Cyt c pair, appropriate aliquots of the respective stock solutions were mixed and subsequently diluted with 2 mM ammonium acetate solution (pH 6.8) to a final protein concentration of 10^−4 M and a protein-to-metal molar ratio of 1:2. All the sample mixtures were incubated for 24 h at 37 °C. Subsequently, opportune dilutions were performed as detailed: • – the TrxR-pept containing solutions were further diluted with LC-MS grade water to a final TrxR-pept concentration of 10^−5 M and added with 0.1% v/v of formic acid just before infusion in the mass spectrometer; • – the protein-containing solutions were diluted with 2 mM ammonium acetate solution (pH 6.8) to a final protein concentration of 10^−6 M and added with 0.1% v/v of formic acid just before infusion. • (b) ESI-MS instrumental parameters. The ESI mass spectra were acquired using a TripleTOF® 5600^+ high-resolution mass spectrometer (Sciex, Framingham, MA, USA), with a DuoSpray® interface operating with an ESI probe. Respective ESI mass spectra were acquired through direct infusion at 7 μL min^−1 flow rate. The ESI source parameters were optimized for each biomolecule and were as follows: for TrxR dodecapeptide positive polarity, ionspray voltage floating 5500 V, temperature 0, ion source gas 1 (GS1) 35 L min^−1; ion source gas 2 (GS2) 0; curtain gas (CUR) 20 L min^−1, declustering potential (DP) 300 V, collision energy (CE) 10 V, range 1070–1600 m/z; for Cyt c positive polarity, ionspray voltage floating 5500 V, temperature 0, ion source gas 1 (GS1) 35 L min^−1; ion source gas 2 (GS2) 0; curtain gas (CUR) 20 L min^−1, declustering potential (DP) 180 V, collision energy (CE) 10 V, range 500–1800 m/z. For acquisition, Analyst TF software 1.7.1 (Sciex, Framingham, MA, USA) was used and deconvoluted spectra were obtained by using the Bio Tool Kit micro-application v.2.2 embedded in PeakView^TM software v.2.2 (Sciex, Framingham, MA, USA).

[1] = system: human ovarian carcinoma cisplatin-resistant A2780cisR; test: Cytotoxicity, WST-1 cell viability assay, A2780cisR; assay type: cell-based; conditions: for IC50: 72 h exposure
Method: In vitro cytotoxicity investigations were carried out by using human ovarian carcinoma cisplatin-sensitive A2780 (ECACC93112519), human ovarian carcinoma cisplatin-resistant A2780cisR (ECACC 93112517) and mouse embryo fibroblasts Balb/3T3 clone A31 (ATCC CCL-163) cell lines. A2780 and A2780cisR were purchased from the European Collection of Authenticated Cell Cultures (ECACC), and Balb/3T3 clone A31 cell line from the American Type Culture Collection (ATCC).
A2780 and A2780cisR cells were routinely cultured in RPMI 1640 (Merck) containing 2 mM of L-glutamine (Merck), 1% of penicillin/streptomycin solution (Merck—10 000 U mL^−1: 10 mg mL^−1), 10% of fetal bovine serum (Merck—FBS) and antimycotic (InvivoGen, USA), and Balb/3T3 clone A31 in Dulbecco’s modified Eagle medium (Merck—DMEM) supplemented with 4 mM of L-glutamine, 1% of penicillin/streptomycin solution, 10% of calf serum (Merck) and antimycotic. […] The cultures were maintained at 37 °C and in a 5% CO2-enriched atmosphere.
A2780, A2780cisR and Balb/3T3 clone A31 cells were seeded in 96-well tissue culture polystyrene plates at a concentration of 3 × 10^3, 6 × 10^3 and 1 × 10^3 cells per well, respectively. After overnight incubation, the cells were treated with different concentrations (0–100 µM) of the selected compounds for 72 h at 37 °C in a 5% atmosphere of CO2. Stock solutions of compounds were prepared in DMSO and sequentially diluted in medium (final DMSO concentration of 0.5%). […] At the end of the incubation time, cell viability was assessed by means of WST-1 tetrazolium salt reagent (Roche). Briefly, cells were incubated for 4 h with the tetrazolium salt reagent diluted 1:10, at 37 °C and 5% CO2. Measurements of formazan dye absorbance, which directly correlates with the number of viable cells, were carried out with a micro-plate reader (Biorad) at 450 nm, using 655 nm as reference wavelength. The 50% inhibitory concentration (IC50) refers to compound concentration at which 50% of cell death is observed with respect to the control. For each tested compound, assay was performed on triplicate. The concentration effect curves were generated by nonlinear regression curves (GraphPad Prism Software, 2021) and the data reported as mean ± standard deviation.

A2780 cells = test: Intracellular ROS production, DCFH-DA assay; assay type: cell-based, human; conditions: 20 μM, up to 24 h, DCFH-DA fluorescence
Method: The intracellular production of reactive oxygen species (ROS) upon treatment of the compounds 3b, 4a, 4c, 5b and 6c was measured by using the DCFH-DA (2′,7′-dichlorodihydrofluorescein diacetate, Merck) assay, based on cellular uptake of the non-fluorescent diacetate following deacetylation by esterases (2′,7′-dichlorodihydrofluorescein, DCFH) and oxidation to the fluorescent dichlorofluorescein (2′,7′-dichlorofluorescein, DCF). A2780 cells were seeded at concentration of 4 × 10^4 cells/well/90 µL of complete growth medium into 96-well plates. After overnight incubation, the cells were treated following manufacturer protocol. 100 µL of a solution containing the fluorogenic probe were added to the culture medium and, after 1 h of incubation with 5% CO2 at 37 °C, the cells were exposed to a final concentration of 20 µM of the tested complexes; H2O2 100 µM was used as a positive control. Stock solutions of compounds were prepared as described above; cells incubated with equal amounts of DMSO in supplemented RPMI were used as control. The fluorescence was measured up to 24 h with an excitation wavelength of 485 nm and with a 535 nm emission filter by Multilabel Counter (PerkinElmer). For each tested compound, assay was performed on triplicate. The data were reported as mean ± standard deviation, statistical differences were analyzed using one-way analysis of variance (ANOVA) and a Tukey test was used for post hoc analysis. A p-value < 0.05 is considered statistically significant.

T1 sequence (P00004 whole entry): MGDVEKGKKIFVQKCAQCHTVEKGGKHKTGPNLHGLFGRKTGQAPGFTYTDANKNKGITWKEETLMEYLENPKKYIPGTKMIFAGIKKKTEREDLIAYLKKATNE

| Substance | Interaction with Cyt c (ESI-MS) (cytochrome c (Cyt c)) | IC50 [1] [µM] | Intracellular ROS production (A2780 cells) | Selectivity index vs A2780cisR ([1]; Balb/3T3 compared to A2780cisR) |
| --- | --- | --- | --- | --- |
| [Fe2Cp2(CO)(μ-CO){μ-η^1:η^3-C^3(Me)C^2(Me)C^1N(CH2Ph)2}]CF3SO3 [Compound 2c] | substantial chemical inertness |  |  |  |
| [Fe2Cp2(CO)(μ-CO){μ-η^1:η^3-C^3(Me)C^2(Me)C^1NMe(2-naphthyl)}]CF3SO3 [Compound 7] | substantial chemical inertness |  |  |  |
| [Fe2Cp2(CO)(μ-CO){μ-η^1:η^3-C^3(Me)C^2(Me)C^1NMe(4-C6H4OMe)}]CF3SO3 [Compound 6c] | substantial chemical inertness | 17 ± 3 | appreciable ROS production |  |
| [Fe2Cp2(CO)(μ-CO){μ-η^1:η^3-C^3(Me)C^2(Me)C^1NMe(CH2Ph)}]CF3SO3 [Compound 5b] | substantial chemical inertness | 12 ± 4 | appreciable ROS production; also recorded: most effective of the series |  |
| [Fe2Cp2(CO)(μ-CO){μ-η^1:η^3-C^3(Me)C^2(Me)C^1NMe(Cy)}]CF3SO3 [Compound 4c] | substantial chemical inertness | 11.4 ± 0.9 | appreciable ROS production | 8 |

Further lines, with some results ahead:

| Interaction with Cyt c (ESI-MS) (cytochrome c (Cyt c)) | Substance | IC50 [1] [µM] | Intracellular ROS production (A2780 cells) | Selectivity index vs A2780cisR ([1]; Balb/3T3 compared to A2780cisR) |
| --- | --- | --- | --- | --- |
| substantial chemical inertness | [Fe2Cp2(CO)(μ-CO){μ-η^1:η^3-C^3(Me)C^2HC^1NMe(Cy)}]CF3SO3 [Compound 4a] | 11.6 ± 1.3 | appreciable ROS production |  |
| substantial chemical inertness | [Fe2Cp2(CO)(μ-CO){μ-η^1:η^3-C^3(Ph)C^2HC^1NMe(4-C6H4OMe)}]CF3SO3 [Compound 6b] |  |  |  |
| substantial chemical inertness | [Fe2Cp2(CO)(μ-CO){μ-η^1:η^3-C^3(Ph)C^2HC^1NMe(CH2CH = CH2)}]CF3SO3 [Compound 3b] | 29 ± 3 | appreciable ROS production |  |
